Data as given in patent US20070197657A1, “Method for treating non-inflammatory musculoskeletal pain” (SRZ Properties, Inc., priority 2005, published 2007).
Entries after “also recorded” stand apart in the source; their conditions may differ.

Columns and labels:
[1] = test system: muscle pressure hyperalgesia induced by TNF; test: TNF-induced muscle pressure hyperalgesia (Randall-Selitto, gastrocnemius muscle); format: in vivo, rat; conditions: for reversal of muscular mechanical hyperalgesia (withdrawal threshold to muscle pressure): TNF 1 μg i.m. gastrocnemius, 30 mg/kg
Text: (§1) The model used in this example is applicable to musculoskeletal pain which occurs in fibromyalgia, myofascial pain syndrome or back pain. For comparative purposes, the non-opioid analgesic dipyrone (metamizol) and the anticonvulsants pregabalin and gabapentin were included in the study.
(§2) Adult male Sprague Dawley rats with a body weight of 250 g to 300 g were used (supplier: Charles River, Sulzfeld, Germany). Animals were group-housed (3 animals per cage) and maintained in a room with controlled temperature (21-22° C.) and a reversed light-dark cycle (12 h/12 h) with food and water available ad libitum. All experiments were approved by the Bavarian State animal experimentation committee and carried out in accordance with its regulations.
(§3) Recombinant rat tumor necrosis factor alpha (herein referred to as TNF) was obtained from R&D Systems, Minneapolis, Minn., U.S.A. TNF was diluted in 0.9% NaCl and used in a concentration of 1 μg in 50 μl. Injections were performed in short halothane narcosis with a 30 g needle bilaterally into the gastrocnemius or into the biceps brachii muscle. All rats were used to the behavioral tests before injections and baseline values were recorded over three test days.
Mechanical withdrawal thresholds to muscle pressure were measured with an analgesimeter (Ugo Basile, Comerio, Italy). The rat was allowed to crawl into a sock which helps the rat to relax. The hind limbs were positioned such that an increasing pressure could be applied onto the gastrocnemius muscle (maximum 250 g). The pressure needed to elicit withdrawal was recorded. Means of 3 trials for each hind limb were calculated (interstimulus interval of >30 sec). Only animals with a significant TNF effect were included for further analysis.
Rats were injected with TNF into the gastrocnemius muscle at 2 pm. Eighteen hours later, rats were tested for pressure hyperalgesia pre- and post-administration of the test drug. Rats were tested for pressure hyperalgesia 30 to 60 minutes after drug administration.
(§4) The rats, initially 10 per group, were treated with either 3, 10 or 30 mg/kg lacosamide, 2 mg/kg metamizol, 30 or 100 mg/kg pregabalin, 100 mg/kg gabapentin, or the NaCl vehicle, i.p. (intraperitoneally). Volume of i.p. injections was 0.5 ml. A pilot study was performed to confirm that i.m. (intramuscular) injection of 1 μg TNF into the gastrocnemius muscle was sufficient to induce pressure hyperalgesia.
(§5) Data are shown in graphs displaying means and standard errors of the means (SEM). Pre- and post-treatment data were compared using ANOVA (analysis of variance) and a Tukey post hoc test. Means of treatment groups were compared using a one-way ANOVA and Dunnett's post hoc test. Maximal possible effects (MPE) were calculated for all types of treatment.

[2] = test system: TNF-induced reduction of grip strength; test: biceps muscle grip strength after TNF-induced muscle pain; format: in vivo, rat; conditions: for reversal of TNF-induced reduction of grip strength: TNF 1 μg i.m. biceps brachii
Text: as §1, §2, §3
Grip strength of the forelimbs was tested with a digital grip force meter (DFIS series, Chatillon, Greensboro, N.C., U.S.A.). The rat was positioned to grab the grid with the forelimbs and was gently pulled so that the grip strength could be recorded. Means of three trials were calculated. The effect of the TNF treatment was calculated for each animal separately and only animals with a significant TNF effect were included for further analysis.
Rats were injected with TNF into the biceps brachii muscle at 8 am. Six hours later, grip strength of the forelimbs was tested with a digital grip force meter. Test drug was administered, and grip strength was again tested after 30 to 60 minutes.
as §4, §5

[3] = test system: monosodium iodoacetate-induced tactile allodynia; test: monosodium iodoacetate-induced tactile allodynia (von Frey filaments); format: in vivo, rat
[4] = test system: monosodium iodoacetate-induced mechanical hyperalgesia; test: monosodium iodoacetate-induced mechanical hyperalgesia (Randall-Selitto paw pressure); format: in vivo, rat; conditions: for mechanical hyperalgesia (paw pressure withdrawal threshold) compared to iodoacetate/vehicle treated animals: day 3; for mechanical hyperalgesia (paw pressure withdrawal threshold): day 7
[5] = test system: formalin-induced flinching and licking of the affected paw; test: rat formalin paw test (late phase); format: in vivo
Method: Rats were given an intraplantar injection of 5% formalin (50 μl) into the posterior left paw. This treatment induces a recognizable flinching and licking response of the affected paw in control animals. The number of flinches was counted for 15 minutes, beginning 20 minutes after injection of formalin. The time spent licking the affected paw was also recorded.
Male Rj: Wistar (Han) rats, 10 per group, weighing 100-130 g at the beginning of the experiments were studied per group. The test was performed blind.
Lacosamide (20 mg/kg), gabapentin (50 and 100 mg/kg), combinations of lacosamide (20 mg/kg) with gabapentin (50 and 100 mg/kg), and vehicle were administered i.p. 10 minutes before injection of formalin.
Lacosamide (10 and 20 mg/kg), morphine (2 and 4 mg/kg), combinations of lacosamide (10 and 20 mg/kg) with morphine (2 and 4 mg/kg), and vehicle were administered i.p. 10 minutes before injection of formalin.
Lacosamide (10 mg/kg), duloxetine (8 mg/kg), a combination of lacosamide (10 mg/kg) with duloxetine (8 mg/kg), and vehicle were administered i.p. 10 minutes before injection of formalin.
Lacosamide (10 and 20 mg/kg), memantine (4 and 8 mg/kg), combinations of lacosamide (10 and 20 mg/kg) with memantine (4 and 8 mg/kg), and vehicle were administered i.p. 10 minutes before injection of formalin.
Lacosamide (10 and 20 mg/kg), naproxen (8 and 16 mg/kg), combinations of lacosamide (10 and 20 mg/kg) with […] (8 and 16 mg/kg), and vehicle were administered i.p. 10 minutes before injection of formalin. Morphine (8 mg/kg) was included as a comparative treatment.

[6] = 3 mg/kg (lacosamide p.o., morphine s.c.)
[7] = Example 3, lacosamide 20 mg/kg i.p.
[8] = Example 4, lacosamide 10 mg/kg i.p.
[9] = Example 4, lacosamide 20 mg/kg i.p.
[10] = Example 5, lacosamide 10 mg/kg i.p.
[11] = Example 6, lacosamide 10 mg/kg i.p.
[12] = Example 6, lacosamide 20 mg/kg i.p.
[13] = Example 7, lacosamide 10 mg/kg i.p.
[14] = Example 7, lacosamide 20 mg/kg i.p.
[15] = Example 4, morphine 2 mg/kg i.p.
[16] = Example 4, morphine 4 mg/kg i.p.
[17] = Example 7, morphine 8 mg/kg i.p.

## COC[C@@H](NC(C)=O)C(=O)NCc1ccccc1 [Lacosamide, (R)-2-acetamido-N-benzyl-3-methoxypropionamide]
[1]; 10 mg/kg i.p.
  MPE (maximal possible effect) on muscle pressure hyperalgesia, versus vehicle: significantly different from vehicle
[1]; 30 mg/kg i.p.
  MPE (maximal possible effect) on muscle pressure hyperalgesia, versus vehicle: significantly different from vehicle
  reversal of muscular mechanical hyperalgesia (withdrawal threshold to muscle pressure): full reversal
[1]; 30 mg/kg i.p., listed as lacosamide
  reversal of muscular mechanical hyperalgesia (withdrawal threshold to muscle pressure): complete reversal
[1]; paw pressure test
  effect on muscle pain in comparison to pregabalin and gabapentin: stronger effect
[2]; 10 mg/kg i.p.
  MPE (maximal possible effect) on biceps muscle grip strength, versus vehicle: significantly different from vehicle
[2]; 30 mg/kg i.p.
  MPE (maximal possible effect) on biceps muscle grip strength, versus vehicle: significantly different from vehicle
  reversal of TNF-induced reduction of grip strength: significant reversal
[2]; 10 mg/kg i.p., 10 mg/kg
  reversal of TNF-induced reduction of grip strength: significant reversal; also recorded: reversed the effect of TNF
[2]; grip strength test
  potency compared with pregabalin and gabapentin: more potent
[3]; day 3, 30 mg/kg (lacosamide p.o., diclofenac s.c.)
  tactile allodynia of iodoacetate-treated rats: improved
[3]; day 7, 30 mg/kg (lacosamide p.o., diclofenac s.c.)
  tactile allodynia of iodoacetate-treated rats: improved
[3]; day 14, 30 mg/kg (lacosamide p.o., diclofenac s.c.)
  tactile allodynia of iodoacetate-treated rats: not on day 14
[3]; lower doses of lacosamide (3, 10 mg/kg p.o.)
  tactile allodynia of iodoacetate-treated rats: showed a trend for such improvement
[4]; [6]
  mechanical hyperalgesia (paw pressure withdrawal threshold) compared to iodoacetate/vehicle treated animals: increase in paw pressure withdrawal threshold
  mechanical hyperalgesia (paw pressure withdrawal threshold): reduced mechanical hyperalgesia
[4]; 30 mg/kg (lacosamide p.o., diclofenac s.c.)
  mechanical hyperalgesia (paw pressure withdrawal threshold): reduced mechanical hyperalgesia
[5]; [7]
  Licking time % change (a): compared with vehicle control: −34%
  Licking time (seconds) mean ± SEM: 146.9 ± 23.8 s
  No. of flinches % change (a): compared with vehicle control: −33%
  No. of flinches mean ± SEM: 85.7 ± 14.3
  decrease in the number of flinches as compared with vehicle controls: 33%
  decrease in the time spent licking as compared with vehicle controls: 34%
[5]; [8]
  Licking time % change (a): compared with vehicle control: −28%
  Licking time (seconds) mean ± SEM: 210.1 ± 22.7 s
  No. of flinches % change (a): compared with vehicle control: +22%
  No. of flinches mean ± SEM: 182.7 ± 25.9
  decrease in the time spent licking as compared with vehicle controls: 28%
  increase in the number of flinches as compared with vehicle controls: 22%
[5]; [9]
  Licking time % change (a): compared with vehicle control: −56%
  Licking time (seconds) mean ± SEM: 128.2 ± 28.0 s
  No. of flinches % change (a): compared with vehicle control: −35%
  No. of flinches mean ± SEM: 97.2 ± 16.0
  decrease in the number of flinches as compared with vehicle controls: 35%
  decrease in the time spent licking as compared with vehicle controls: 56%
[5]; [10]
  Licking time % change (a): compared with vehicle control: −30%
  Licking time (seconds) mean ± SEM: 185.2 ± 31.7 s
  No. of flinches % change (a): compared with vehicle control: +5%
  No. of flinches mean ± SEM: 158.2 ± 15.6
  decrease in the time spent licking: 30%
  effects on number of flinches and time spent licking: no significant effects
[5]; [11]
  Licking time % change (a): compared with vehicle control: −4%
  Licking time (seconds) mean ± SEM: 168.5 ± 23.9 s
  No. of flinches % change (a): compared with vehicle control: −31%
  No. of flinches mean ± SEM: 113.9 ± 23.2
  decrease in the number of flinches as compared with vehicle controls: 31%
  effect on the time spent licking: no clear effects
[5]; [12]
  Licking time % change (a): compared with vehicle control: −52%
  Licking time (seconds) mean ± SEM: 85.1 ± 19.1 s
  No. of flinches % change (a): compared with vehicle control: −48%
  No. of flinches mean ± SEM: 85.8 ± 14.4
  decrease in the number of flinches as compared with vehicle controls: 48%
  decrease in the time spent licking: 52%
[5]; [13]
  Licking time % change (a): compared with vehicle control: −9%
  Licking time (seconds) mean ± SEM: 174.7 ± 20.4 s
  No. of flinches % change (a): compared with vehicle control: −13%
  No. of flinches mean ± SEM: 99.2 ± 16.6
  effect on the time spent licking: no clear effects
[5]; [14]
  Licking time % change (a): compared with vehicle control: −59%
  Licking time (seconds) mean ± SEM: 78.9 ± 20.4 s
  No. of flinches % change (a): compared with vehicle control: −12%
  No. of flinches mean ± SEM: 100.3 ± 22.3
  decrease in the time spent licking: 59%
[5]; Example 7, lacosamide 10 and 20 mg/kg i.p.
  effect on the number of flinches as compared with vehicle controls: did not clearly affect

## CN1CC[C@]23c4c5ccc(O)c4O[C@H]2[C@@H](O)C=C[C@H]3[C@H]1C5 [Morphine, morphine, reference compound]
[3]; day 3, 3 mg/kg s.c.
  tactile allodynia of iodoacetate-treated rats: improved
[3]; day 7, 3 mg/kg s.c.
  tactile allodynia of iodoacetate-treated rats: improved
[3]; day 14, 3 mg/kg s.c.
  tactile allodynia of iodoacetate-treated rats: not on day 14
[4]; [6]
  mechanical hyperalgesia (paw pressure withdrawal threshold) compared to iodoacetate/vehicle treated animals: increase in paw pressure withdrawal threshold
  mechanical hyperalgesia (paw pressure withdrawal threshold): reduced mechanical hyperalgesia
[5]; [15]
  Licking time % change (a): compared with vehicle control: −1%
  Licking time (seconds) mean ± SEM: 289.3 ± 30.7 s
  No. of flinches % change (a): compared with vehicle control: −7%
  No. of flinches mean ± SEM: 139.5 ± 25.3
[5]; [16]
  Licking time % change (a): compared with vehicle control: −20%
  Licking time (seconds) mean ± SEM: 234.9 ± 37.3 s
  No. of flinches % change (a): compared with vehicle control: −37%
  No. of flinches mean ± SEM: 94.3 ± 21.1
[5]; Example 4, morphine 2 and 4 mg/kg i.p.
  effects on the number of flinches and the time spent licking as compared with vehicle controls: did not reach statistical significance
[5]; [17]
  Licking time % change (a): compared with vehicle control: −100%
  Licking time (seconds) mean ± SEM: 0.0 ± 0.0 s
  No. of flinches % change (a): compared with vehicle control: −100%
  No. of flinches mean ± SEM: 0.2 ± 0.1
  effect on flinching and the time spent licking as compared with vehicle controls: eliminated
